The values below come from publication PMC9936921 (Oncogene, 2018).

Each structure is given as a SMILES string. Read-outs that look alike come from different tables or passages of the source.

Usually Kd stands for the free concentration of one partner at which half of the binding sites on the other are occupied at equilibrium, for simple one-to-one binding. Higher therefore signals weaker binding.

Experiment in all cases: SPR
Holding throughout (type): binding

The target of test [1] is CD99 (Homo sapiens, UniProt P14209).
Test [2] addresses T1, CD99 (Homo sapiens, UniProt P14209).
T1 sequence (P14209 23-185): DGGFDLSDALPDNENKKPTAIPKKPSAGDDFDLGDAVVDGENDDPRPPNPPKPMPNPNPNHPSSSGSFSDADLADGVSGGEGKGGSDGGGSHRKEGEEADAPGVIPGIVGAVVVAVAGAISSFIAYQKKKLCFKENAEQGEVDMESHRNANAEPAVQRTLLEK
The source holds these as a separate data set.

In test [3] the target is T1, CD99. This is another data set of the same source.

Compound `Nc1nc(Cl)nc2c1ncn2[C@H]1C[C@H](O)[C@@H](CO)O1` [cladribine] came in with a dissociation constant (Kd) in test [1] of 3.8 ± 3.3 µM.

For `Nc1nc(Cl)nc2c1ncn2[C@@H]1O[C@H](COP(=O)(O)OP(=O)(O)OP(=O)(O)O)[C@@H](O)[C@@H]1F` [clofarabine-5’-triphosphate], in test [2], binding was put at a Kd of 3.7 µM.

In test [3], `Nc1nc(Cl)nc2c1ncn2[C@@H]1O[C@H](CO)[C@@H](O)[C@@H]1F` [clofarabine] had a Kd of 5.3 ± 3.2 µM.
